Assay results: US12201632B2, “Levoketoconazole for treatment of congenital adrenal hyperplasia and primary aldosteronism” (Strongbridge Dublin Limited, priority 2018, dated 2025)

Experiments:
[1] = tested on: EAS associated adrenal hyperplasia no. 1 primary culture; assay: Steroid profile by LC/MS-MS in EAS associated adrenal hyperplasia no. 1; assay type: cell-based, human; conditions: for 11-DOC absolute change vs ACTH stimulation with vehicle / 11-DOC percentage change vs ACTH stimulation with vehicle / 17-OHP absolute change vs ACTH stimulation with vehicle / 17-OHP percentage change vs ACTH stimulation with vehicle / Androstenedione absolute change vs ACTH stimulation with vehicle / Androstenedione percentage change vs ACTH stimulation with vehicle / Corticosterone absolute change vs ACTH stimulation with vehicle / Corticosterone percentage change vs ACTH stimulation with vehicle / Cortisol absolute change vs ACTH stimulation with vehicle / Cortisol percentage change vs ACTH stimulation with vehicle / DHEA absolute change vs ACTH stimulation with vehicle / DHEAS absolute change vs ACTH stimulation with vehicle / Prog absolute change vs ACTH stimulation with vehicle / Prog percentage change vs ACTH stimulation with vehicle / Testosterone absolute change vs ACTH stimulation with vehicle / Testosterone percentage change vs ACTH stimulation with vehicle: EAS associated adrenal hyperplasia no. 1, ACTH; for 11-DOC absolute change vs ACTH stimulation with vehicle / 11-DOC percentage change vs ACTH stimulation with vehicle / 17-OHP absolute change vs ACTH stimulation with vehicle / 17-OHP percentage change vs ACTH stimulation with vehicle / Androstenedione absolute change vs ACTH stimulation with vehicle / Androstenedione percentage change vs ACTH stimulation with vehicle / Corticosterone absolute change vs ACTH stimulation with vehicle / Corticosterone percentage change vs ACTH stimulation with vehicle / Cortisol absolute change vs ACTH stimulation with vehicle / Cortisol percentage change vs ACTH stimulation with vehicle / DHEA absolute change vs ACTH stimulation with vehicle / DHEAS absolute change vs ACTH stimulation with vehicle / Prog absolute change vs ACTH stimulation with vehicle / Prog percentage change vs ACTH stimulation with vehicle / Testosterone absolute change vs ACTH stimulation with vehicle / Testosterone percentage change vs ACTH stimulation with vehicle / 11-DOC absolute change vs control / 11-DOC percentage change vs control / 17-OHP absolute change vs control / 17-OHP percentage change vs control / Androstenedione absolute change vs control / Androstenedione percentage change vs control / Corticosterone absolute change vs control / Corticosterone percentage change vs control / Cortisol absolute change vs control / Cortisol percentage change vs control / DHEA absolute change vs control / DHEAS absolute change vs control / Prog absolute change vs control / Prog percentage change vs control / Testosterone absolute change vs control / Testosterone percentage change vs control: 3 days; for 11-DOC absolute change vs control / 11-DOC percentage change vs control / 17-OHP absolute change vs control / 17-OHP percentage change vs control / Androstenedione absolute change vs control / Androstenedione percentage change vs control / Corticosterone absolute change vs control / Corticosterone percentage change vs control / Cortisol absolute change vs control / Cortisol percentage change vs control / DHEA absolute change vs control / DHEAS absolute change vs control / Prog absolute change vs control / Prog percentage change vs control / Testosterone absolute change vs control / Testosterone percentage change vs control: EAS associated adrenal hyperplasia no. 1, Basal
Protocol: (§1) To obtain primary cultures, adrenal specimens (adrenocortical adenomas, adrenal hyperplasias and adrenocortical carcinomas) were collected after adrenalectomy at the department of Surgery, Erasmus University Medical Center, Rotterdam, the Netherlands, between April 2016 and May 2018. The study was conducted under guidelines that have been approved by the Medical Ethics Committee of the Erasmus Medical Center and informed consent was obtained from all patients. Immediately after surgery, specimens were minced into small pieces of 2-3 mm^3, washed in culture medium and centrifuged for 5 minutes at 600 g. The tissue was stored overnight in culture medium at 4° C., where after the tissue was centrifuged again and the supernatant was removed. Fragments were dissociated using 10-25 ml collagenase type 1 (2 mg/ml: Sigma-Aldrich), followed by incubation at 37° C. for up to two hours. Ficoll (GE healthcare) density gradient separation was used once or twice as required in order to separate contaminating red blood cells from the tumor cells. Cell viability and cell amount were counted by trypan blue exclusion. Dissociated cells were plated at a density of 10^5 cells per well. ACTH-secreting corticotroph pituitary adenoma tissue from patients with Cushing's disease (n=2) was available after transsphenoidal surgery. Single-cell suspensions of the pituitary adenoma tissues were prepared as previously described in detail.
(§2) Primary culture conditions for primary cultures were similar as described in the section ‘cell culture and compounds’, but with small adjustments: ACTH was used at a concentration of 85 pM (250 pg/mL), treatment was started 3-4 days after plating of the cells and cells were incubated for 3 days, and; for pituitary primary cultures, levoketoconazole and racemic ketoconazole were only tested at a concentration of 1 μM. Owing to a limited number of cells obtained from the specimens, not all experiments were carried out in every primary culture.
(§3) Cortisol concentrations were measured in the supernatant using a chemiluminescence immunoassay system (Immulite 2000XPi; Siemens DPC Inc., Los Angeles, Calif., USA). In addition, we carried out multi-steroid analysis by liquid chromatography/mass spectrometry (LC/MS-MS) to accurately quantify androstenedione, corticosterone, cortisol, 11-deoxycortisol, DHEA, DHEAS, progesterone, 17-hydroxyprogesterone, and testosterone. Concentrations that were tested on the LC/MS-MS were closest to 50% inhibition or maximal inhibition of cortisol as determined by the immunoassay. Steroids were quantified with respect to a calibration series, with internal standards. Steroids were quantified on a Xevo TQS LC-MS/MS (Waters Chromatography).
(§4) Statistical analysis was performed using Graphpad Prism 6.0 (Graphpad Software, San Diego, CA). Non-linear regression curve fitting program was used to calculate the half maximal inhibitory concentrations (IC50) on cortisol production. Effects of both compounds on the steroid profile were measured as absolute change compared to control and compared using the Student's t-test. When assessing differences between effects of both compounds, the percentage change was evaluated and compared in order to correct for differences in the vehicle treated control cells. Values of P<0.05 were considered statistically significant and data are presented as mean SEM.

[2] = tested on: human primary adrenocortical cultures; assay: Cortisol production in human primary adrenocortical cultures, comparison across cultures; assay type: cell-based; conditions: primary human adrenocortical cultures
Protocol: as §1, §2, §3, §4

CC(=O)N1CCN(c2ccc(OC[C@@H]3CO[C@@](Cn4ccnc4)(c4ccc(Cl)cc4Cl)O3)cc2)CC1 (relative stereo) [levoketoconazole, 2S,4R cis-1-acetyl-4-[4-[[2-(2,4-dichlorophenyl)-2-(1H-imidazol-1-ylmethyl)-1,3-dioxolan-4-yl]methoxyl]phenyl]piperazine]
11-DOC absolute change vs ACTH stimulation with vehicle ([1]; 0.05 μM): did not change
11-DOC percentage change vs ACTH stimulation with vehicle ([1]; 0.05 μM): (+1.6%)
17-OHP absolute change vs ACTH stimulation with vehicle ([1]; 0.05 μM): +8.300 nmol/l
17-OHP percentage change vs ACTH stimulation with vehicle ([1]; 0.05 μM): +41%
Androstenedione absolute change vs ACTH stimulation with vehicle ([1]; 0.05 μM): -9.600 nmol/L
Androstenedione percentage change vs ACTH stimulation with vehicle ([1]; 0.05 μM): −50%
Corticosterone absolute change vs ACTH stimulation with vehicle ([1]; 0.05 μM): +97.95 nmol/l
Corticosterone percentage change vs ACTH stimulation with vehicle ([1]; 0.05 μM): +29%
Cortisol absolute change vs ACTH stimulation with vehicle ([1]; 0.05 μM): -234.8 nmol/L
Cortisol percentage change vs ACTH stimulation with vehicle ([1]; 0.05 μM): −37%
DHEA absolute change vs ACTH stimulation with vehicle ([1]; 0.05 μM): <LLQ
DHEAS absolute change vs ACTH stimulation with vehicle ([1]; 0.05 μM): <LLQ
Prog absolute change vs ACTH stimulation with vehicle ([1]; 0.05 μM): +6.025 nmol/l
Prog percentage change vs ACTH stimulation with vehicle ([1]; 0.05 μM): +167%
Testosterone absolute change vs ACTH stimulation with vehicle ([1]; 0.05 μM): -0.3250 nmol/L
Testosterone percentage change vs ACTH stimulation with vehicle ([1]; 0.05 μM): −45%
11-DOC absolute change vs ACTH stimulation with vehicle ([1]; 0.05 μM, listed as LK): -6.000 nmol/L
17-OHP absolute change vs ACTH stimulation with vehicle ([1]; 0.05 μM, listed as LK): +8.300 nmol/l
17-OHP percentage change vs ACTH stimulation with vehicle ([1]; 0.05 μM, listed as LK): (+41%)
Androstenedione absolute change vs ACTH stimulation with vehicle ([1]; 0.05 μM, listed as LK): -9.600 nmol/L
Androstenedione percentage change vs ACTH stimulation with vehicle ([1]; 0.05 μM, listed as LK): (−50%)
Corticosterone absolute change vs ACTH stimulation with vehicle ([1]; 0.05 μM, listed as LK): 97.95 nmol/L
Corticosterone percentage change vs ACTH stimulation with vehicle ([1]; 0.05 μM, listed as LK): (+29%)
Cortisol absolute change vs ACTH stimulation with vehicle ([1]; 0.05 μM, listed as LK): -234.8 nmol/L
Cortisol percentage change vs ACTH stimulation with vehicle ([1]; 0.05 μM, listed as LK): (−37%)
Prog percentage change vs ACTH stimulation with vehicle ([1]; 0.05 μM, listed as LK): (+167%)
Testosterone absolute change vs ACTH stimulation with vehicle ([1]; 0.05 μM, listed as LK): -0.3250 nmol/L
Testosterone percentage change vs ACTH stimulation with vehicle ([1]; 0.05 μM, listed as LK): (−45%)
11-DOC absolute change vs ACTH stimulation with vehicle ([1]; 5 μM): -435.4 nmol/L
11-DOC percentage change vs ACTH stimulation with vehicle ([1]; 5 μM): (−99%)
17-OHP absolute change vs ACTH stimulation with vehicle ([1]; 5 μM): -31.55 nmol/L
17-OHP percentage change vs ACTH stimulation with vehicle ([1]; 5 μM): (−90%)
Androstenedione absolute change vs ACTH stimulation with vehicle ([1]; 5 μM): -15.19 nmol/L
Androstenedione percentage change vs ACTH stimulation with vehicle ([1]; 5 μM): (−98%)
Corticosterone absolute change vs ACTH stimulation with vehicle ([1]; 5 μM): -373.7 nmol/L
Corticosterone percentage change vs ACTH stimulation with vehicle ([1]; 5 μM): (−100%)
Cortisol absolute change vs ACTH stimulation with vehicle ([1]; 5 μM): -640.2 nmol/L
Cortisol percentage change vs ACTH stimulation with vehicle ([1]; 5 μM): (−100%)
DHEA absolute change vs ACTH stimulation with vehicle ([1]; 5 μM): <LLQ
DHEAS absolute change vs ACTH stimulation with vehicle ([1]; 5 μM): <LLQ
Prog absolute change vs ACTH stimulation with vehicle ([1]; 5 μM): +37.66 nmol/l
Prog percentage change vs ACTH stimulation with vehicle ([1]; 5 μM): (+1201%)
Testosterone absolute change vs ACTH stimulation with vehicle ([1]; 5 μM): -0.5513 nmol/L
Testosterone percentage change vs ACTH stimulation with vehicle ([1]; 5 μM): (−85%)
11-DOC absolute change vs control ([1]; 0.05 μM): -96.33 nmol/L
11-DOC percentage change vs control ([1]; 0.05 μM): (−37%)
17-OHP absolute change vs control ([1]; 0.05 μM): -0.4667 nmol/L
17-OHP percentage change vs control ([1]; 0.05 μM): (−4.6%)
Androstenedione absolute change vs control ([1]; 0.05 μM): -6.508 nmol/L
Androstenedione percentage change vs control ([1]; 0.05 μM): (−64%)
Corticosterone absolute change vs control ([1]; 0.05 μM): -67.07 nmol/L
Corticosterone percentage change vs control ([1]; 0.05 μM): (−33%)
Cortisol absolute change vs control ([1]; 0.05 μM): -178.4 nmol/L
Cortisol percentage change vs control ([1]; 0.05 μM): (−64%)
DHEA absolute change vs control ([1]; 0.05 μM): <LLQ
DHEAS absolute change vs control ([1]; 0.05 μM): <LLQ
Prog absolute change vs control ([1]; 0.05 μM): +5.108 nmol/l
Prog percentage change vs control ([1]; 0.05 μM): (+123%)
Testosterone absolute change vs control ([1]; 0.05 μM): -0.2583 nmol/L
Testosterone percentage change vs control ([1]; 0.05 μM): (−48%)
11-DOC absolute change vs control ([1]; 5 μM): -280.5 nmol/L
11-DOC percentage change vs control ([1]; 5 μM): (−99%)
17-OHP absolute change vs control ([1]; 5 μM): -14.33 nmol/L
17-OHP percentage change vs control ([1]; 5 μM): (−93%)
Androstenedione absolute change vs control ([1]; 5 μM): -7.978 nmol/L
Androstenedione percentage change vs control ([1]; 5 μM): (−95%)
Corticosterone absolute change vs control ([1]; 5 μM): -193.8 nmol/L
Corticosterone percentage change vs control ([1]; 5 μM): (−99%)
Cortisol absolute change vs control ([1]; 5 μM): -230.3 nmol/L
Cortisol percentage change vs control ([1]; 5 μM): (−99%)
DHEA absolute change vs control ([1]; 5 μM): <LLQ
DHEAS absolute change vs control ([1]; 5 μM): <LLQ
Prog absolute change vs control ([1]; 5 μM): +13.36 nmol/l
Prog percentage change vs control ([1]; 5 μM): (+363%)
Testosterone absolute change vs control ([1]; 5 μM): -0.3838 nmol/L
Testosterone percentage change vs control ([1]; 5 μM): (−90%)
total change of steroids ([1]; EAS associated adrenal hyperplasia no. 1, basal condition): -343.9 nmol/L
total sum of change of the steroids: decrease ([1]; EAS associated adrenal hyperplasia no. 1, under ACTH stimulation): 138.5 nmol/L
propensity to increase 11-deoxycorticosterone secretion compared to racemic ketoconazole ([1]; human adrenal cells in the presence of ACTH drive): less propensity to increase 11-deoxycorticosterone secretion
difference in IC50 value between patients and tissue specimens [2]: 24 fold
